Converted amounts (≈) assume the structure as drawn.
What was measured:
M. Smegmatis ATCC607 = assay: In-vitro anti-bacterial activity against strain M. smegmatis ATCC607 (Alamar Blue growth inhibition); type: cell-based; details: 48 hours incubation; for IC50: Mycolicibacterium smegmatis, read-out: M. smegmatis pIC50 (converted)
Experimental: Serial five-fold dilutions (45 μl in 180 μl) were made directly in the microtiter plates from column 2 to 11 using a customised robot system (Zymark Corp., Hopkinton, Mass.). Pipette tips were changed after every 3 dilutions to minimize pipetting errors with high hydrophobic compounds. Untreated control samples with (column 1) and without (column 12) inoculum were included in each microtiter plate. Approximately 250 CFU per well of bacteria inoculum, in a volume of 100 μl in 2.8× Mueller-Hinton broth medium, was added to the rows […]. The same volume of broth medium without inoculum was added to column 12 in row A to H. The cultures were incubated at 37° C. for 48 hours in a humidified 5% CO2 atmosphere (incubator with open air valve and continuous ventilation). At the end of incubation, two days after inoculation, the bacterial growth was quantitated fluorometrically. Therefore Alamar Blue (10×) was added to all wells in a volume of 20 μl and plates were incubated for another 2 hours at […] The fluorescence was read in a computer-controlled fluorometer (Cytofluor, Biosearch) at an excitation wavelength of 530 nm and an emission wavelength of 590 nm (gain 30). The percentage growth inhibition achieved by the compounds was calculated according to standard methods and expressed as pIC50 values.

STA 29213 = assay: Microtitre plate assay, IC90 determination, STA 29213; type: cell-based, S. aureus; details: 90% inhibitory concentration for bacterial growth, strain STA 29213, 24 hours at 37° C.; for IC90: Staphylococcus aureus, read-out: IC90 (μg/ml) STA 29213
Experimental: (§1) Stocks (0.5 ml/tube) were stored at -70° C. until use. Bacteria titrations were performed in microtiter plates to detect the TCID50, in which the TCID50 represents the dilution that gives rise to bacterial growth in 50% of inoculated cultures. In general, an inoculum level of approximately 100 TCID50 was used for susceptibility testing. […] Serial five-fold dilutions (45 μl in 180 μl) were made directly in the microtiter plates from column 2 to reach column 11. Untreated control samples with (column 1) and without (column 12) inoculum were included in each microtiter plate. Depending on the bacteria type, approximately 10 to 60 CFU per well of bacteria inoculum (100 TCID50), in a volume of 100 μl in 2.8× Mueller-Hinton broth medium, was added to the rows […]. The same volume of broth medium without inoculum was added to column 12 in row A to H. The cultures were incubated at 37° C. for 24 hours under a normal atmosphere (incubator with open air valve and continuous ventilation). At the end of incubation, one day after inoculation, the bacterial growth was quantitated fluorometrically. Therefore resazurin (0.6 mg/ml) was added in a volume of 20 μl to all wells 3 hours after inoculation, and the plates were re-incubated overnight. A change in colour from blue to pink indicated the growth of bacteria. The fluorescence was read in a computer-controlled fluorometer (Cytofluor Biosearch) at an excitation wavelength of 530 nm and an emission wavelength of 590 nm. The % growth inhibition achieved by the compounds was calculated according to standard methods. The IC90 (expressed in μg/ml) was defined as the 90% inhibitory concentration for bacterial growth.

SPY 8668 = assay: Microtitre plate assay, IC90 determination, SPY 8668; type: cell-based, S. pyogens; details: 90% inhibitory concentration for bacterial growth, strain SPY 8668, 24 hours at 37° C.
Experimental: as §1

ECO 25922 = assay: Microtitre plate assay, IC90 determination, ECO 25922; type: cell-based, E. coli; details: 90% inhibitory concentration for bacterial growth, strain ECO 25922, 24 hours at 37° C.; for IC90: Escherichia coli, read-out: IC90 (μg/ml) ECO 25922
Experimental: as §1

[1] = test system: Mycobacterium tuberculosis (strain H37RV); assay: In-vitro method for testing compounds against M. tuberculosis (resazurin growth inhibition); type: cell-based; details: 7 days incubation; for IC50: Mycobacterium tuberculosis, 168 h, read-out: M. tuberculosis pIC50 (converted)
BSU 43639 = assay: Microtitre plate assay, IC90 determination, BSU 43639; type: cell-based, Bacillus subtilis; details: 90% inhibitory concentration for bacterial growth, strain BSU 43639, 24 hours at 37° C.
Experimental: as §1

EFA 29212 = assay: Microtitre plate assay, IC90 determination, EFA 29212; type: cell-based, E. faecalis; details: 90% inhibitory concentration for bacterial growth, strain EFA 29212, 24 hours at 37° C.; for IC90: Enterococcus faecalis, read-out: IC90 (μg/ml) EFA 29212
Experimental: as §1

STA 25923 = assay: Microtitre plate assay, IC90 determination, STA 25923; type: cell-based, S. aureus; details: 90% inhibitory concentration for bacterial growth, strain STA 25923, 24 hours at 37° C.; for IC90: Staphylococcus aureus, read-out: IC90 (μg/ml) STA 25923
Experimental: as §1

LMO 49594 = assay: Microtitre plate assay, IC90 determination, LMO 49594; type: cell-based, Listeria monocytogenes; details: 90% inhibitory concentration for bacterial growth, strain LMO 49594, 24 hours at 37° C.; for IC90: Listeria monocytogenes, read-out: IC90 (μg/ml) LMO 49594
Experimental: as §1

EFA 14506 = assay: Microtitre plate assay, IC90 determination, EFA 14506; type: cell-based, E. faecalis; details: 90% inhibitory concentration for bacterial growth, strain EFA 14506, 24 hours at 37° C.; for IC90: Enterococcus faecalis, read-out: IC90 (μg/ml) EFA 14506
Experimental: as §1

PAE 27853 = assay: Microtitre plate assay, IC90 determination, PAE 27853; type: cell-based, Pseudomonas aeruginosa; details: 90% inhibitory concentration for bacterial growth, strain PAE 27853, 24 hours at 37° C.; for IC90: Pseudomonas aeruginosa, read-out: IC90 (μg/ml) PAE 27853
Experimental: as §1

SMU 33402 = assay: Microtitre plate assay, IC90 determination, SMU 33402; type: cell-based, S. mutans; details: 90% inhibitory concentration for bacterial growth, strain SMU 33402, 24 hours at 37° C.
Experimental: as §1

SPN 6305 = assay: Microtitre plate assay, IC90 determination, SPN 6305; type: cell-based, S. pneumoniae; details: 90% inhibitory concentration for bacterial growth, strain SPN 6305, 24 hours at 37° C.
Experimental: as §1

STA RMETH = assay: Microtitre plate assay, IC90 determination, STA RMETH; type: cell-based, S. aureus; details: Staphylococcus aureus; 90% inhibitory concentration for bacterial growth; strain STA RMETH; 24 hours at 37° C.; read-out: IC90 (μg/ml) STA RMETH
Experimental: as §1

COc1nc2ccc(Br)cc2cc1C(c1ccccc1)N(CCN(C)C)c1ccccc1 (stereo not shown) [Compound 18]
IC50 (M. Smegmatis ATCC607): 2 µM
melting point: 120 °C

COc1nc2ccc(Br)cc2cc1C(c1ccccc1)N(CCN(C)C)Cc1ccccc1 (stereo not shown) [Compound 21]
IC90 (μg/ml) STA 29213 (STA 29213): 10.1 µg/mL (≈ 20 µM)
IC90 (μg/ml) SPY 8668 (SPY 8668): 10.1 µg/mL (≈ 20 µM)
IC90 (μg/ml) ECO 25922 (ECO 25922): 12.7 µg/mL (≈ 25.2 µM)
M. smegmatis pIC50 (M. Smegmatis ATCC607): 5.8
M. tuberculosis pIC50 [1]: 5.1
IC90 (μg/ml) BSU 43639 (BSU 43639): 10.1 µg/mL (≈ 20 µM)
IC90 (μg/ml) EFA 29212 (EFA 29212): 12.7 µg/mL (≈ 25.2 µM)
IC90 (μg/ml) STA 25923 (STA 25923): 11.3 µg/mL (≈ 22.4 µM)
IC90 (μg/ml) LMO 49594 (LMO 49594): 12.7 µg/mL (≈ 25.2 µM)
IC90 (μg/ml) EFA 14506 (EFA 14506): 10.1 µg/mL (≈ 20 µM)
IC90 (μg/ml) PAE 27853 (PAE 27853): 12.7 µg/mL (≈ 25.2 µM)
IC90 (μg/ml) SMU 33402 (SMU 33402): 10.1 µg/mL (≈ 20 µM)
IC90 (μg/ml) SPN 6305 (SPN 6305): 12.7 µg/mL (≈ 25.2 µM)

COc1nc2ccc(C#N)cc2cc1C(c1ccccc1)N(CC(=O)N1CCCC1)Cc1ccccc1 (stereo not shown) [Compound 122]
IC90 (ECO 25922): 12.3 µg/mL (≈ 25.1 µM)
IC50 (M. Smegmatis ATCC607): 63.1 µM
melting point: 161 °C

COc1nc2ccc(Br)cc2cc1C(c1ccccc1F)N(CCN(C)C)Cc1ccccc1 (stereo not shown) [Compound 22]
IC90 (STA 29213): 10.4 µg/mL (≈ 19.9 µM)
IC90 (ECO 25922): 52.2 µg/mL (≈ 99.9 µM)
IC50 (M. Smegmatis ATCC607): 1.58 µM
IC90 (BSU 43639; Bacillus subtilis, read-out: IC90 (μg/ml) BSU 43639): 41.5 µg/mL (≈ 79.4 µM)
IC90 (EFA 29212): 10.4 µg/mL (≈ 19.9 µM)
IC90 (STA 25923): 8.3 µg/mL (≈ 15.9 µM)
IC90 (LMO 49594): 8.3 µg/mL (≈ 15.9 µM)
IC90 (EFA 14506): 41.5 µg/mL (≈ 79.4 µM)
IC90 (PAE 27853): 13.1 µg/mL (≈ 25.1 µM)

COc1nc2ccc(C#N)cc2cc1C(c1ccccc1)N(CC(=O)N1CCN(C)CC1)Cc1ccccc1 (stereo not shown) [Compound 123]
IC90 (μg/ml) ECO 25922 (ECO 25922): 13.1 µg/mL (≈ 25.2 µM)
M. smegmatis pIC50 (M. Smegmatis ATCC607): 5.2
IC90 (μg/ml) SPN 6305 (SPN 6305): 13.1 µg/mL (≈ 25.2 µM)

Cc1ccc2nc(-c3ccccc3)c(C(c3ccccc3)N(CC(=O)N3CCSCC3)Cc3ccccc3)cc2c1 (stereo not shown) [Compound 70]
IC90 (ECO 25922): 14 µg/mL (≈ 25.1 µM)
IC50 (M. Smegmatis ATCC607): 0.251 µM
IC50 [1]: 3.16 µM
melting point: 144 °C
IC90 (EFA 29212): 14 µg/mL (≈ 25.1 µM)
IC90 (LMO 49594): 14 µg/mL (≈ 25.1 µM)

Cc1ccc2nc(-c3ccccc3)c(C(c3ccccc3)N(CC(=O)NN3CCN(C)CC3)Cc3ccccc3)cc2c1 (stereo not shown) [Compound 69]
IC90 (STA 29213): 9 µg/mL (≈ 15.8 µM)
IC50 (M. Smegmatis ATCC607): 1.58 µM

Cc1ccc2nc(-c3ccccc3)c(C(c3ccccc3)N(CC(=O)N(C)C(C)C)Cc3ccccc3)cc2c1 (stereo not shown) [Compound 41]
IC90 (ECO 25922): 13.3 µg/mL (≈ 25.2 µM)
IC50 (M. Smegmatis ATCC607): 0.1 µM
IC50 [1]: 6.31 µM
melting point: 126 °C

COc1nc2ccc(C)cc2cc1C(c1ccccc1)N(CC(=O)N1CCOCC1)Cc1ccccc1 (stereo not shown) [Compound 59]
IC90 (ECO 25922): 12.4 µg/mL (≈ 25 µM)
IC50 (M. Smegmatis ATCC607): 1.58 µM
melting point: 126 °C

CN(C)CCN(Cc1ccccc1)C(c1ccccc1)c1cc2cc(Br)ccc2nc1-c1ccccc1 (stereo not shown) [Compound 51]
IC90 (STA RMETH): 12.3 µg/mL (≈ 22.3 µM)
IC90 (STA 29213): 11 µg/mL (≈ 20 µM)
IC90 (SPY 8668; read-out: IC90 (μg/ml) SPY 8668): 2.8 µg/mL (≈ 5.09 µM)
IC90 (ECO 25922): 13.8 µg/mL (≈ 25.1 µM)
IC50 (M. Smegmatis ATCC607): 1 µM
IC50 [1]: 7.94 µM
IC90 (EFA 29212): 13.8 µg/mL (≈ 25.1 µM)
IC90 (STA 25923): 12.3 µg/mL (≈ 22.3 µM)
IC90 (LMO 49594): 13.8 µg/mL (≈ 25.1 µM)
IC90 (EFA 14506): 11 µg/mL (≈ 20 µM)
IC90 (PAE 27853): 11 µg/mL (≈ 20 µM)
IC90 (SMU 33402; Streptococcus mutans, read-out: IC90 (μg/ml) SMU 33402): 6.9 µg/mL (≈ 12.5 µM)
IC90 (SPN 6305; Streptococcus pneumoniae, read-out: IC90 (μg/ml) SPN 6305): 2.8 µg/mL (≈ 5.09 µM)

Reference: patent US7915292B2, “Antibacterial quinoline derivatives” (Janssen Pharmaceutica NV, priority 2005, dated 2011)
